# Measured values from paper PMC5369532, “NMR-filtered virtual screening leads to non-metal chelating metallo-β-lactamase inhibitors” (Chemical Science, 2016).
# Assays:
# TEM-1 = TEM-1 (Escherichia coli, UniProt P62593); test: TEM-1 inhibition, selectivity profile (FC5 substrate); assay type: biochemical; details: Fig. 4
# SPM-1 = SPM-1 (Pseudomonas aeruginosa, UniProt Q8G9Q0); test: SPM-1 inhibition, selectivity profile (FC5 substrate); assay type: biochemical; details: Fig. 4
# Experimental: (§1) Except where noted, recombinant forms of NDM-1, VIM-2, SPM-1, IMP-1, and BcII MBLs were produced in Escherichia coli and assays were carried out as described previously10. The IC50 values of all the compounds for VIM-2 were determined using […]
# (§2) the FC-5 based assay10. […]
# (§3) concentrations (0 μM, 1 μM, and 100 μM, see Fig. S8). The selectivity profiles of compounds of interest against other B1 MBLs including VIM-511, VIM-110, NDM-1, SPM-1, and BcII, and TEM-112 (class A SBL) were determined using the same method as described above. The inhibitory activities of these compounds against CphA (B2 […]
# (§4) Enzymea Categorya [E]b, (nM) Substrate [Substrate], (μM) […]
# (§5) CphA Class B2 MBL 2.5 Meropenem 125 […]
# (§6) TEM-1 Class A SBL 2.5 FC5 5 a MBL: Metallo β-lactamase; SBL: serine β-lactamase; VIM, Verona Integron–encoded MBL; IMP, Imipenemase; NDM, New Delhi MBL; TEM-1: Temomeira-type 1 […]
# (§7) b The enzyme concentrations of the purified proteins were determined by measuring Abs@280nm using a NanoDrop (ThermoFisher) spectrometer and calculated molar extinction coefficient for each sample; concentrations of diluted solutions used in the assay were calculated from the original concentration. […]
# (§8) negative controls. These were tested in same assay conditions but at 2mM instead of 100uM compound concentration.
# BcII = target: T1, BcII (Bacillus cereus, UniProt P04190); test: BcII inhibition, selectivity profile (FC5 substrate); assay type: biochemical; details: Fig. 4
# T1 construct: made in house; host or cells: Escherichia coli
# Experimental: as §1, §2, §3, §4, §5, §6, §7, §8
# CphA = CphA (Aeromonas hydrophila, UniProt P26918); test: biochemical
# Experimental: as §1
# (§9) concentrations (0 μM, 1 μM, and 100 μM, see Fig. S8). The selectivity profiles of […]
# (§10) as described above. The inhibitory activities of these compounds against CphA (B2 MBL)13 and L1 (B3 MBL)14 were determined using meropenem and nitrocefin, […]
# (§11) at 100 μM. […]
# (§12) MBL; IMP, Imipenemase; NDM, New Delhi MBL; TEM-1: Temomeira-type 1 […]
# as §7
# (§13) negative controls. These were tested in same assay conditions but at 2mM instead of 100uM compound concentration. […]
# L1 = L1 (Stenotrophomonas maltophilia, UniProt P52700); test: biochemical
# Experimental: as §1, §9, §10, §11, §12, §7, §13
# NDM-1 = target: T2, NDM-1 (Klebsiella pneumoniae, UniProt C7C422); test: NDM-1 inhibition, selectivity profile (FC5 substrate); assay type: biochemical; details: Fig. 4
# T2 construct: made in house; host or cells: Escherichia coli
# Experimental: as §1, §2, §3, §4, §5, §6, §7, §8
# VIM-2 = target: T3, VIM-2 (Escherichia coli, UniProt Q5U7L7); test: biochemical; assay type: biochemical
# T3 construct: made in house; host or cells: Escherichia coli
# Experimental: as §1, §9
# as described above. The inhibitory activities of these compounds against CphA (B2 […]
# as §12, §7, §13
# di-Zn(II) VIM-2 = target: T4, di-Zn(II) VIM-2 (Escherichia coli, UniProt Q5U7L7); assay type: binding; details: 50 μM enzyme, 50 μM Zn(II), 50 μM compound, 50 mM Tris-D11 pH 7.5
# T4 construct: made in house
# Experimental: (§14) Except where noted, recombinant forms of NDM-1, VIM-2, SPM-1, IMP-1, and BcII MBLs were produced in Escherichia coli and assays were carried out as described […]
# (§15) previously10. […]
# (§16) Nuclear Magnetic Resonance (NMR) spectra were recorded using a Bruker AVIII 600 MHz NMR spectrometer equipped with a BB-19F/1H Prodigy N2 cryoprobe using 5 mm diameter NMR tubes (Norell). Typical experimental parameters for Carr-Purcell-Meiboom-Gill (CPMG) NMR spectroscopy were: total echo time, 40 ms; […]
# (§17) The PROJECT-CPMG sequence
# (§18) (90°x−[τ−180°y−τ−90°y−τ−180°y−τ]n−acq) was applied. 15 Water suppression was achieved by pre-saturation. Data were processed with Bruker 3.1 software. Prior to […]
# (§19) Fourier transformation, data were multiplied with an exponential function with 0.5 Hz […]
# (§20) line broadening. […]
# apo-VIM-2 = apo-VIM-2 (Escherichia coli, UniProt Q5U7L7); assay type: binding; details: 50 μM apo enzyme, 50 μM compound, 50 mM Tris-D11 pH 7.5
# Experimental: as §14, §15, §16, §17, §18, §19, §20
# VIM-1 = VIM-1 (Pseudomonas aeruginosa, UniProt A0A0F7KYQ8); test: biochemical; details: n ≥ 3
# CphA, sequence (P26918 28-254): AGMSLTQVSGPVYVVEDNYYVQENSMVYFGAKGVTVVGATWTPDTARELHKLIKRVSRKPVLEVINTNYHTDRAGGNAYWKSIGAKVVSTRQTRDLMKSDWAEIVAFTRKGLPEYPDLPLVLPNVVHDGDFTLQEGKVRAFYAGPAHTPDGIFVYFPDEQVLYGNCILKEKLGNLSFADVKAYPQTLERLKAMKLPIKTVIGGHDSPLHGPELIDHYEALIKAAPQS
# T2 sequence (C7C422 29-270, looked up, species assumed): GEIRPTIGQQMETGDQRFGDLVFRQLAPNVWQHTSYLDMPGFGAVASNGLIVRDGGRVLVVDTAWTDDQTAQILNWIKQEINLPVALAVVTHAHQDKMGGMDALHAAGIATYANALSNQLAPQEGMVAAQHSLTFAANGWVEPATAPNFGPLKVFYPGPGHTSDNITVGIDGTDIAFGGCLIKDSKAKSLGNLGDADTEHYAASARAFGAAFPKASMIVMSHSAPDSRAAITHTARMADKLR
# L1, sequence (P52700 34-290): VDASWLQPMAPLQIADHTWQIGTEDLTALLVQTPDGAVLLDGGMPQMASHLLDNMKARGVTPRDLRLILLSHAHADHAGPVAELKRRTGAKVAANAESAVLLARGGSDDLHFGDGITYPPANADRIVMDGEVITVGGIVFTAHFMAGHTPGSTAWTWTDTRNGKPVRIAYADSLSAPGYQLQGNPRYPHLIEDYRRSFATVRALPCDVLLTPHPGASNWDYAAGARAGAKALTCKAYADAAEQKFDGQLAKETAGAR
# T1 sequence (P04190 31-257): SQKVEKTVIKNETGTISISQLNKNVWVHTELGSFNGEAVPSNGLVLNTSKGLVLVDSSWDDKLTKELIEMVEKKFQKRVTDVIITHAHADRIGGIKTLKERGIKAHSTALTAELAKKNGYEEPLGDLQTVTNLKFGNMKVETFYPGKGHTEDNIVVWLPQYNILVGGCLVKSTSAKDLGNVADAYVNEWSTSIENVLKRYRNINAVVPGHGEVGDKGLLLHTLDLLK
# TEM-1, sequence (P62593 24-286 limits assumed): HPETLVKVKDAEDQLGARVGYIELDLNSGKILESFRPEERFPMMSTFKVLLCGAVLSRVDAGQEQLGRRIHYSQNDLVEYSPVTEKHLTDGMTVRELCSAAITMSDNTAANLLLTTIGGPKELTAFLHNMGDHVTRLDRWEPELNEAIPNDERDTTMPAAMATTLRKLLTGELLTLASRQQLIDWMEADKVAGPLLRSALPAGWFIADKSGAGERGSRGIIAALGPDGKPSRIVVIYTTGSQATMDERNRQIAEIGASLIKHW
# SPM-1, sequence (Q8G9Q0 entry or part of it): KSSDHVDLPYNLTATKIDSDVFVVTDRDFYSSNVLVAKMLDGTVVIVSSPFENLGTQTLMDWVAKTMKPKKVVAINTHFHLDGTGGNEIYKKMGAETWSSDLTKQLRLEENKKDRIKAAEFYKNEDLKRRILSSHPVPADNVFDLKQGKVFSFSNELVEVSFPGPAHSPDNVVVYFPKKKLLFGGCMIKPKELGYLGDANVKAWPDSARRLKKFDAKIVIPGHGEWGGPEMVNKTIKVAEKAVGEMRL
Compound,inhibition of class A serine β-lactamase TEM-1 (in words) (TEM-1),IC50 (SPM-1) [µM],IC50 (BcII) [µM],IC50 (CphA) [µM],IC50 (L1) [µM],IC50 (NDM-1) [µM],"differences between the inhibitory activity with or without excess Zn(II) (VIM-2; 0 μM, 1 μM and 100 μM Zn(II))","IC50 (VIM-2; FC-5 based assay, n ≥ 3, read-out: IC50 (VIM-2)) [µM]",binding to di-Zn(II) VIM-2 by 1H CPMG NMR (di-Zn(II) VIM-2),binding to apo-VIM-2 by 1H CPMG NMR (apo-VIM-2),IC50 (VIM-1) [µM]
O=C(O)c1cccc2c1C(=O)N(Cc1c(F)cccc1Cl)C2 [Compound 16],no inhibition was observed,> 400,> 400,> 400,> 400,> 400,–,–,–,–,–
O=C(O)c1cccc2c1C(=O)N(c1cccc(C(F)(F)F)c1)C2 [Compound 17],no inhibition was observed,> 400,> 400,> 400,> 400,> 400,no obvious differences,32.8,binding and bind,binding and bind,> 400
